Consider six compounds from patent publication US20050032111A1, “Cadherin-11 as an indicator of viable pregnancy” (priority 1997, published 2005).

Several values for one entry are separate records, joined by “and”; a condition that tells them apart may be missing. Equal values may be shown once. Entries after “also recorded” stand apart in the source; their conditions may differ. Where a name gives a salt, the structure may show the parent alone.

One test concerns cad-11 mRNA. The test can be described thus: Northern blot analysis of cad-11 mRNA in cultured endometrial stromal cells. It counts as cell-based, human. The conditions noted are these: for stromal cad-11 mRNA levels over time: Example 4C, P4 1 μM, E2 30 nM, DHT 0.1 μM, 0-96 h, P4 effect continued to increase until 96 h; for cad-11 mRNA levels: Example 4B, 24 h culture, P4 0.1-1 μM, E2 30 nm. Here is the method: (§1) Endometrial stroma cells were isolated from secretory endometrium as described above. The stroma cells were grown to confluence, washed with PBS, and cultured in DMEM containing charcoal stripped FCS for a further 24 h. The culture medium was removed, and after the cells had been washed twice with PBS, replaced with fresh DMEM containing charcoal stripped FCS. The cells were harvested for either Northern (see Example 5) or Western blot analysis (see Example 6) after 24 h of culture in the presence or absence of steroids in the culture medium P4 (0.1-1 μM), E2 (30 nm), or vehicle (0.1% ethanol).
(§2) Endometrial stromal cells were separated from the glandular epithelium by enzymatic digestion and mechanical dissociation as described above. The endometrial stromal cells were washed once in phenol red-free Dulbecco'e Modified Eagle's medium (DMEM) containing 10% charcoal-stripped fetal bovine serum (FBS) before being resuspended and plated in DMEM containing 25 mM glucose, […] L-glutamine, antibiotics (100 U/ml penicillin, 100 μg/ml streptomycin and 2.5 μg/ml fungizone), and supplemented with 30% charcoal-stripped FBS. The culture medium was replaced 30 min after plating in order to reduce epithelial cell contamination. The purity of the cell cultures was determined by immunocytochemical staining for vimentin, cytokeratin, muscle actin, and factor VIII.
(§3) The stromal cells (passage 2) were grown to confluence, washed with PBS, and cultured in phenol, red-free DMEM supplemented with 10% charcoal-stripped FBS is and containing either progesterone (P4 1 μM), 17β-estradiol (E2, 30 nM), the non-aromatisable androgen dihydrotestosterone (DHT, 0.1 μM) or vehicle (0.1% ethanol). The cells were cultured in the presence or absence of the steroids for 0, 6, 12, 24, 48, 72 or 96 h before being harvested for Northern or Western blot analysis as described in Examples 5 and 6 using the probe described in Example 4A.
To standardise the amounts of total RNA, the blots were also probed with a radiolabelled synthetic oligonucleotide specific for 18S rRNA. Radioautograms were scanned using an LKB laser densitometer. The absorbance values obtained for the cad-11 transcripts were normalised relative to the 18S rDNA absorbance value. Statistical differences between time points and treatments were assessed by the analysis of variance (ANOVA). Differences were considered to be significant for p <0.05.
(§4) To determine whether a combination of steroids was required for maximal cad-11 expression in endometrial stromal cells, the cells (prepared as described above) were cultured in the presence of P4 (1 μM) plus E2 (30 nM), or P4 (1 μM) plus DHT (0.1 μM) for 0, 6, 12, 24, 48, 72 or 96 h before being harvested for Northern or Western blot analysis as described above.
(§5) To determine whether the ability of E2 to potentiate the effects of P4 on stromal cad-11 expression was dose-dependent, the cells were cultured in the presence of vehicle (0.1% ethanol), E2 (30 nM), P4 (1 μM) or P4 (1 μM) plus varying doses of E2 ([…]) for 96 h. 30 nM is approximately equivalent to physiological levels. The cells were then harvested for Northern and Western blot analysis using the procedures described above.
RNA Extraction using an RNAID™ kit (BIO 101, Inc.): • 1. 500 μl cell solution+500 μl of 2M sodium acetate (pH 4.0). • 2. Vortex. • 3. Add 525 μl of chloroform/isoamyl alcohol. • 4. Vortex. • 5. Incubate on ice for 15 minutes. • 6. Spin at 4° C./10,000×g for 20 minutes. • 7. Transfer top phase (RNA rich portion) to a new vial, taking care not to touch the interface and bottom organic solvent part. • 8. Add ½ volume of chloroform/isoamyl alcohol. • 9. Vortex. • 10. Spin 2 min at 4° C./10,000×g. • 11. Transfer top phase to a new tube. • 12. Add 20 μl of RNA Matrix. • 13. Vortex 30 sec. • […].

A further test relates to cad-11 protein. The test can be described thus: Western blot analysis of cad-11 protein in cultured endometrial stromal cells. The test is classed as cell-based, human. The note with it: for cad-11 protein expression levels over time: Example 4C, P4 1 μM, E2 30 nM, DHT 0.1 μM, 0-96 h, P4 effect continued to increase until 86 h [sic]. Here is the method:
as §1, §2, §3, §4, §5
Cell cultures were rinsed three times with PBS and drained. The cells were incubated in 100 μl of cell lysis buffer (Tris HCL, pH 7.5 containing 0.5 NP-40, 0.5 mM CaCl2, and 1.0 mM PMSF) at 4° C. for 30 min on a rocking platform. Cell lysates were collected by scraping plate with a plastic spatula. The cell lysates were centrifuged at 10,000 xg for 20 min, and the supernatant was used in the Western Blot analyses or stored at −70° C. Aliquots from the samples were subjected to SDS polyacrylamide gel electrophoresis under reducing conditions. The stacking gels contained 5% acrylamide, and the separating gels were composed of 7.5% acrylamide. The proteins were electrophoretically transferred from the gels onto nitrocellulose membrane. The nitrocellulose blots were probed with the mouse monoclonal antibody (C11-113H) directed against human cad-11 (from ICOS Corporation, Bothell, Wash.) produced as described in Example 10 below. The Amersham ECL™ system was used to detect antibody bound to antigen.

In test [1] the test system is cad-11 in the endometrium. The test can be described thus: Cad-11 immunostaining (HSCORE) of endometrial biopsies after treatment. The test is classed as in vivo, human. The conditions noted are these: for AFTER TREATMENT (HSCORE), cad-11 expression in the endometrium: women with primary habitual abortion and LPD, one line per patient 1-8; for effect of treatment on endometrial cad-11 expression: women with LPD-associated habitual abortion, degree of response variable. The method, then: The intensity of cad-11 immunostaining in the endometrial biopsies may be determined by the semiquantitative HSCORE technique which is routinely used in oncology for cancer cell counts. The HSCORE is a continuous value (from 0-4, respectively), in which a discriminatory level that designates positives and negatives for the test is determined. Typically, a consensus is made between counts carried out by two observers in a blinded fashion employing a double-headed microscope at low and high magnification.
(§6) The presence of cad-11 was examined in endometrial biopsies obtained from women presenting with primary (no prior live birth) habitual abortion in association with luteal phase deficiency (LPD). This group of women, who account for approximately 20% of the women attending the Recurrent Pregnancy Loss Clinic, B.C. Women's Hospital and Health Centre, University of British Columbia, Vancouver, Canada, are routinely treated with progesterone or clomiphene citrate (a nonsteroidal synthetic compound). Biopsy specimens were obtained from these women before and after treatment. Cad-11 expression/production was correlated with pregnancy outcome upon treatment. Present treatment of LPD consists of either vaginal progesterone suppositories or clomiphene citrate, with the dosage being adjusted until a repeat endometrial biopsy is considered to be “in phase” by morphological assessment.
LPD was diagnosed by traditional methods prior to determining cad-11 by immunostaining. To increase the likelihood of including only those individuals with authentic LPD, the criteria for inclusion in this study was two consecutive biopsies with a 3 days of maturation delay based on the first day of the next menses as determined by morphological assessment.
In 16 such patients, cad-11 immunostaining was examined in biopsies obtained before and after treatment with either progesterone (results shown in Table 1A) or clomiphene citrate (results shown in Table 1B). All 16 had return of normal in-phase morphology on subsequent biopsy. The endometrial biopsy specimens were then re-evaluated for cad-11 using immunohistochemical staining. Comparison of staining pattern and intensity was performed using a monoclonal antibody directed against human cadherin-11 and standard immunohistochemical techniques according to the protocol set out in Example 3. The intensity of cad-11 immunostaining in the endometrial biopsies was determined by the semiquantitative HSCORE technique as described above.
For Detection of Cad-11 in Endometrial Biopsy Specimens • Prepare diluent fresh 1% bovine serum albumin (BSA; Sigma Chem Co.)/1% Automation Buffer (AB; ESBE Lab.) (wt/vol).
For paraffin embedded endometrial biopsy specimen sections (5 μm): • 1. Wash tissue specimen thoroughly in phosphate-buffered saline (PBS). • 2. […]

For test [2], the system named is women presenting with primary habitual abortion and diagnosed with luteal phase deficiency. The test can be described thus: Pregnancy outcome upon treatment. It counts as in vivo, human. The conditions noted are these: one line per patient 1-8.
Excerpt: as §6
However, different intensities of cad-11 immunostaining in the epithelial and stromal component of the endometrium observed in this cohort of women (HSCORES=0-4: Tables 1A and 1B). […] Conversely, a negative HSCORE (0-1) following treatment correlated with a subsequent pregnancy loss (spontaneous abortion).

The mark [3] stands for this setting: Example 4E, P4 1 μM plus E2 0.5-100 nM, 96 h.
Setting [4] is: Example 4E, with P4 1 μM, 96 h, versus 30 nM E2.
[5] abbreviates: Example 4F, cultured endometrial stromal cells.
The mark [6] stands for this setting: Treatment: Progesterone Suppositories.

With `C[C@]12CCC(=O)C[C@@H]1CC[C@@H]1[C@@H]2CC[C@]2(C)[C@@H](O)CC[C@@H]12` [DHT, dihydrotestosterone], the “stromal cad-11 mRNA levels over time” value in the test on cad-11 mRNA is recorded as “did not significantly increase cad-11 mRNA levels”. The “cad-11 protein expression levels over time” value in the test on cad-11 protein is “No significant increase in cad-11 expression levels”.
Turning to `C[C@]12CC[C@@H]3c4ccc(O)cc4CC[C@H]3[C@@H]1CC[C@@H]2O` [E2, 17β-estradiol], in the test on cad-11 mRNA, the “cad-11 mRNA levels” value is “little effect on cad-11 mRNA levels” and the “stromal cad-11 mRNA levels over time” value is listed as “did not significantly increase cad-11 mRNA levels”. The “potentiation of P4-mediated increase in stromal cad-11 mRNA by increasing doses of E2” value with cad-11 mRNA (setting [3]) is on record as “progressively enhanced the effects of P4”. Also, the “E2 concentration at which maximum cad-11 mRNA expression level was observed” value with cad-11 mRNA (Example 4E, with P4 1 μM, 96 h) turned out to be 30 nM. The “enhancement of stromal cad-11 mRNA when E2 was increased to 100 nM” value in the test with cad-11 mRNA (setting [4]) was “no further enhancement”. Further, the “potentiation of the progestin-mediated increase in cad-11 mRNA” value in the test with cad-11 mRNA (setting [5]) is recorded as “potentiate this effect”. Besides, the “cad-11 protein expression levels over time” value with cad-11 protein is given as “No significant increase in cad-11 expression levels”. The “potentiation of P4-mediated increase in stromal cad-11 protein by increasing doses of E2” value in the test with cad-11 protein (setting [3]) is recorded as “progressively enhanced the effects of P4”. Also, the “E2 concentration at which maximum cad-11 protein expression level was observed” value in the test with cad-11 protein (Example 4E, with P4 1 μM, 96 h) was determined as 30 nM. In the test on cad-11 protein (setting [4]), the “enhancement of stromal cad-11 protein when E2 was increased to 100 nM” value is on record as “no further enhancement”. Also, in the test on cad-11 protein (setting [5]), the “potentiation of the progestin-mediated increase in cad-11 protein” value is recorded as “potentiate this effect”.
On to `CC(=O)[C@H]1CC[C@H]2[C@@H]3CC=C4C[C@@H](O)CC[C@]4(C)[C@H]3CC[C@]12C` [Pregnenolone], for which the “regulation of cad-11 mRNA expression by steroid alone” value (from here on “regulation of cad-11 mRNA expression”) with cad-11 mRNA (setting [5]) is given as “increased cad-11 expression”. Also, the “regulation of cad-11 protein expression by steroid alone” value (shortened to “regulation of cad-11 protein expression”) with cad-11 protein (setting [5]) is recorded as “increased cad-11 expression”.
Regarding `CCN(CC)CCOc1ccc(C(=C(Cl)c2ccccc2)c2ccccc2)cc1` [clomiphene citrate], the “AFTER TREATMENT (HSCORE), cad-11 expression in the endometrium” value in test [1] (Treatment: Clomiphene Citrate) was 4 (positive) HSCORE (2×) and 2 (equivocal) HSCORE and 1 (negative) HSCORE (2×) and 0 (negative) HSCORE and 3 (positive) HSCORE (2×). In addition, the “effect of treatment on endometrial cad-11 expression” value in test [1] is recorded as “capable of increasing endometrial cad-11 expression”. The “PREGNANCY OUTCOME” value in test [2] (Treatment: Clomiphene Citrate) is listed as “successful; also recorded: spontaneous”.
With `CC(=O)O[C@]1(C(C)=O)CC[C@H]2[C@@H]3C[C@H](C)C4=CC(=O)CC[C@]4(C)[C@H]3CC[C@@]21C` [medroxyprogesterone acetate], in the test on cad-11 mRNA (setting [5]), the “regulation of cad-11 mRNA expression” value is “increased cad-11 expression”. For the same compound, the “regulation of cad-11 protein expression” value in the test on cad-11 protein (setting [5]) is listed as “increased cad-11 expression”.
On to `CC(=O)[C@H]1CC[C@H]2[C@@H]3CCC4=CC(=O)CC[C@]4(C)[C@H]3CC[C@]12C` [progesterone], for which the “AFTER TREATMENT (HSCORE), cad-11 expression in the endometrium” value in test [1] (setting [6]) was 3 (positive) HSCORE (2×) and 4 (positive) HSCORE (2×) and 2 (equivocal) HSCORE and 1 (negative) HSCORE (2×) and 0 (negative) HSCORE. In addition, in test [1], the “effect of treatment on endometrial cad-11 expression” value is “capable of increasing endometrial cad-11 expression”. In addition, in the test on cad-11 mRNA, the “cad-11 mRNA levels” value is “increased cad-11 mRNA levels in a dose-dependent manner” and the “stromal cad-11 mRNA levels over time” value is recorded as “significant increase in the stromal cad-11 mRNA levels after 24 h”. In the test on cad-11 mRNA (setting [5]), the “regulation of cad-11 mRNA expression” value is listed as “increased cad-11 expression”. The “stromal cad-11 protein” value with cad-11 protein (Example 4B, 24 h culture, P4 0.1-1 μM) was “induced an increase in stromal cad-11 protein”. Moreover, in the test with cad-11 protein, the “cad-11 protein expression levels over time” value was “increase in cad-11 expression after 24 h”. Further, the “regulation of cad-11 protein expression” value in the test with cad-11 protein (setting [5]) is “increased cad-11 expression”. In test [2] (setting [6]), the “PREGNANCY OUTCOME” value is given as “successful; also recorded: spontaneous”.
